Columns and labels:
[1] = tested on: Jurkat T(PD1 Luc-)/CHOK1(PDL-1); assay: Jurkat T(PD1 Luc-)/CHOK1(PDL-1) cell experiment (luciferase reporter); type: cell-based; conditions: CHO/PD-L1-OKT3 cells co-cultured with Jurkat/PD1-NFAT-Luc cells for 6 hours; Bio-Glo luciferase signal
Procedure: Assay 2 Jurkat T(PD1 Luc-)/CHOK1(PDL-1) Cell Experiment
G418, Sangon Biotech #A100859-0001, Cat Number G108BA0003, 5 ml of deionized water being added into each bottle, store at 4° C.
CHO/PD-L1-OKT3 cells (constructed by referring to Promega's PD-1/PD-L1 Blockade Bioassays system) cultured in F-12K medium (containing 10% FBS, 800 ug/ml G418, 400 ug/ml D Hygromycin B) were planted into a 96-well plate at 2×10^4 per well, and incubated for 24 hours at 37° C. and 5% CO2. part of the medium was removed, and the test compound dissolved in DMSO with a final concentration of 1 uM was added, and DMSO at the same concentration was added into the control cells. Jurkat/PD1-NFAT-Luc cells (constructed by referring to Promega's PD-1/PD-L1 Blockade Bioassays system) were added at 5×10^5 per well at the same time, and cultured for 6 hours. The corresponding luciferase signal was detected by Bio-Glo™ (Promega, G7940) reagent. The EC50 of each compound to be tested was calculated through the non-linear regression of XLfit software.

[2] = target: T1, PD-1/PD-L1 (Homo sapiens, UniProt Q9NZQ7); assay: PD-1/PD-L1 binding assay (HTRF, PPI-HTRF); conditions: HTRF PD1/PD-L1 binding assay kit; 10 nM Tag1-PD-L1; 25° C.
T1 construct: purchased Cisbio 63ADK000CPDPEB
Procedure: Assay 1 PD-1/PD-L1 Binding Assay
DMSO is from Sigma, Cat No: D5879; 384-well small volume plate (white) is from Greiner, Cat No: 784075; Anti-PD1 blocking antibody (IC50: 10 nM) is from Cisbio, Cat No: 64CUS000C-1a; Anti-PDL1 blocking antibody (IC50: 0.3 nM) is from Cisbio, Cat No: 64CUS000C-1b; HTRF PD1/PD-L1 binding assay kit is from Cisbio, Cat No: 63ADK000CPDPEB.
1. Prepare the compound to be tested at 2x concentration into 1× reaction buffer containing 4% DMSO;
2. Tag1-PD-L1 protein and Tag2-PD1 protein were prepared in 1× reaction buffer at concentrations of […] and 10 nM, respectively. The final reaction concentration of the experiment was 10 nM Tag1-PD-L1 and 2 nM […];
3. anti-Tag1-Eu3+ antibody is prepared in 1x concentration detection buffer at a ratio of 1:100;
4. anti-Tag2-XL665 antibody is prepared in 1x concentration detection buffer at a ratio of 1:25; Experimental steps
1. 5 μL of compounds to be tested (2×) was added;
2. 2.5 ul Tag1-PD-L1 protein and 2.5 ul Tag2-PD1 protein were added respectively, and the total reaction system is 10 ul, and reacted at 25° C. for 15 minutes;
3. 5 ul anti-Tag1-Eu3+ antibody and 5 ul anti-Tag2-XL665 antibody were added respectively, and reacted at 25° C. for 16 hours;
4. The fluorescence microplate reader HTRF reading program was used to read two readings at 665 nm and 620 nm, the ratio of the two wavelengths was used to judge the activity of the compound, and the IC50 of the compound to be tested is calculated by XLFIT5.0 (IDBS).

T1 sequence (Q9NZQ7 19-238 limits assumed): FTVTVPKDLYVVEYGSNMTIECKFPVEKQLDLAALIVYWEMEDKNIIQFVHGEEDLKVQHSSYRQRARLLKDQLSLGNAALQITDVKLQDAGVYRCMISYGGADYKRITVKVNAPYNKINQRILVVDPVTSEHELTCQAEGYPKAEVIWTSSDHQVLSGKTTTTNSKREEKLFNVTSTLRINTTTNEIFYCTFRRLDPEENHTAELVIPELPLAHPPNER

SMILES	EC50 [1]	IC50 [2]
Cc1cc(/C=C/c2nccc(-c3cccc(NC(=O)c4ccc(CNCCO)cn4)c3C)c2C#N)c(Cl)cc1CNCCO [Z-1, (E)-N-(3-(2-(2-chloro-4-(((2-hydroxyethyl)amino)methyl)-5-methylstyryl)-3-cyanopyridin-4-yl)-2-methylphenyl)-5-(((2-hydroxyethyl)amino)methyl)picolinamide]	162 nM	1 nM
Cc1cc(/C=C/c2nccc(-c3cccc(NC(=O)c4ccc(CNCCO)cn4)c3C)c2C#N)c(Cl)cc1CN1CCCC[C@H]1C(=O)O [Z-2, (S, E)-1-(5-chloro-4-(2-(3-cyano-4-(3-(5-(((2-hydroxyethyl)amino)methyl)picolinamido)-2-methylphenyl)pyridin-2-yl)vinyl)-2-methylbenzyl)piperidine-2-carboxylic Acid]	79 nM	1 nM
COc1cc(/C=C/c2cccc(-c3cccc(Nc4nccc5cc(CN6CC[C@@H](O)C6)cnc45)c3C)c2C)c(C(F)(F)F)cc1CN1CC[C@@H](C(=O)O)C1 [Z-8]	47 nM	2 nM
Cc1cc(/C=C/c2cccc(-c3cccc(Nc4nccc5cc(CN6CC[C@@H](O)C6)cnc45)c3C)c2C)c(C(F)(F)F)cc1CN1CC[C@@H](C(=O)O)C1 [Z-9]	48 nM	1 nM
COc1cc(/C=C/c2cccc(-c3cccc(Nc4nccc5cc(CN6CC[C@@H](O)C6)cnc45)c3C)c2C)c(C(F)(F)F)cc1CN1CCC[C@H]1C(=O)O [Z-11]	137 nM	1 nM
COc1cc(/C=C/c2ccnc(-c3cccc(Nc4nccc5cc(CN6CC[C@@H](O)C6)cnc45)c3C)c2Cl)c(C(F)(F)F)cc1CN1CC[C@@H](C(=O)O)C1 [Z-12]	153 nM	1 nM
COc1cc(/C=C/c2ccnc(-c3cccc(Nc4nccc5cc(CN6CC[C@@H](O)C6)cnc45)c3C)c2C#N)c(C(F)(F)F)cc1CN1CC[C@@H](C(=O)O)C1 [Z-14]	208 nM	< 1 nM
Cc1cc(/C=C/c2cccc(-c3cccc(-c4nc5cc(CN6CC[C@@H](C(=O)O)C6)cc(C#N)c5o4)c3C)c2C)c(C(F)(F)F)cc1CN1CC[C@@H](O)C1 [Z-18, (R)-1-((7-cyano-2-(3′-((E)-4-(((R)-3-hydroxypyrrolidin-1-yl)methyl)-5-methyl-2-(trifluoromethyl)styryl)-2,2′-dimethyl-[1,1′-biphenyl]-3-yl)benzo[d]oxazol-5-yl)methyl)pyrrolidine-3-carboxylic Acid]	142 nM	1 nM
COc1cc(/C=C/c2cccc(-c3cccc(-c4nc5cc(CN6CC[C@@H](C(=O)O)C6)cc(C#N)c5o4)c3C)c2C)c(C(F)(F)F)cc1CN1CC[C@@H](O)C1 [Z-21, (R)-1-((7-cyano-2-(3′-((E)-4-(((R)-3-hydroxypyrrolidin-1-yl)methyl)-5-methoxy-2-(trifluoromethyl)styryl)-2,2′-dimethyl-[1,1′-biphenyl]-3-yl)benzo[d]oxazol-5-yl)methyl) pyrrolidine-3-carboxylic Acid]	5 nM	1 nM
COc1cc(/C=C/c2cccc(-c3cccc(-c4nc5cc(CN6CC[C@@H](O)C6)cc(C#N)c5o4)c3C)c2C)c(C(F)(F)F)cc1CN1CCCC[C@H]1C(=O)O [Z-26]	39 nM	4 nM
COc1cc(/C=C/c2cccc(-c3cccc(-c4nc5cc(CN6CC[C@@H](C(=O)O)C6)cc(C(N)=O)c5o4)c3C)c2C)c(C(F)(F)F)cc1CN1CC[C@@H](O)C1 [Z-27, (R)-1-((7-carbamoyl-2-(3′-((E)-4-(((R)-3-hydroxypyrrolidin-1-yl)methyl)-5-methoxy-2-(trifluoromethyl)styryl)-2,2′-dimethyl-[1,1′-biphenyl]-3-yl)benzo[d]oxazol-5-yl)methyl)pyrrolidine-3-carboxylic Acid]	176 nM	1 nM
COc1cc(/C=C/c2cccc(-c3cccc(-c4nc5cc(CN6CC[C@@H](C(=O)O)C6)cc(C#N)c5o4)c3C)c2C)c(C(F)(F)F)cc1CN1CC[C@H](O)C1 [Z-29]	109 nM	2 nM
COc1cc(/C=C/c2cccc(-c3cccc(-c4nc5cc(CN6CC[C@H](C(=O)O)C6)cc(C#N)c5o4)c3C)c2C)c(C(F)(F)F)cc1CN1CC[C@H](O)C1 [Z-30]	104 nM	2 nM
COc1cc(/C=C/c2cccc(-c3cccc(-c4nc5cc(CN6CC[C@@H](C(=O)O)C6)cc(C#N)c5o4)c3C)c2C)c(C(F)(F)F)cc1CNCCO [Z-33]	74 nM	1 nM
COc1cc(/C=C/c2cccc(-c3cccc(-c4nc5cc(CN6CC[C@@H](C(=O)O)C6)cc(C#N)c5o4)c3C)c2C)c(C(F)(F)F)cc1CN[C@@H](C)CO [Z-34, (R)-1-((7-cyano-2-(3′-((E)-4-((((S)-1-hydroxypropan-2-yl)amino)methyl)-5-methoxy-2-(trifluoromethyl)styryl)-2,2′-dimethyl-[1,1′-biphenyl]-3-yl)benzo[d]oxazol-5-yl)methyl)pyrrolidine-3-carboxylic Acid]	79 nM	2 nM
COc1cc(/C=C/c2cccc(-c3cccc(-c4nc5cc(CN6CC[C@H](C(=O)O)C6)cc(C#N)c5o4)c3C)c2C)c(C(F)(F)F)cc1CN1CC[C@@H](O)C1 [Z-35]	29 nM	2 nM
COc1cc(/C=C/c2cccc(-c3cccc(-c4nc5cc(CN6CC[C@@H](O)C6)cc(C#N)c5o4)c3C)c2C)c(C(F)(F)F)cc1CN1CCC[C@H]1C(=O)O [Z-36, (4-((E)-2-(3′-(7-cyano-5-(((R)-3-hydroxypyrrolidin-1-yl)methyl)benzo[d]oxazol-2-yl)-2,2′-dimethyl-[1,1′-biphenyl]-3-yl)vinyl)-2-methoxy-5-(trifluoromethyl)benzyl)-L-proline]	50 nM	2 nM
COc1cc(/C=C/c2cccc(-c3cccc(-c4nc5cc(CN6CC[C@@H](C(=O)O)C6)cc(C#N)c5o4)c3C)c2Cl)c(C(F)(F)F)cc1CN1CC[C@@H](O)C1 [Z-38]	83 nM	1 nM
COc1cc(/C=C/c2cccc(-c3cccc(-c4nc5cc(CNCCO)cc(C#N)c5o4)c3C)c2C)c(C(F)(F)F)cc1CN1CCCC[C@H]1C(=O)O [Z-40]	108 nM	1 nM
CCOC(=O)[C@@H]1CCN(Cc2cc(C#N)c3oc(-c4cccc(-c5cccc(/C=C/c6cc(OC)c(CN7CC[C@@H](O)C7)cc6C(F)(F)F)c5C)c4C)nc3c2)C1 [Z-45]	70 nM	
Cc1cc(/C=C/c2nccc(-c3cccc(-c4nc5cc(CN6CCC(C(=O)O)C6)cc(Cl)c5o4)c3C)c2C#N)c(C(F)(F)F)cc1CN1CC[C@@H](O)C1 (stereo partly drawn) [Z-48]	70 nM	
COc1cc(/C=C/c2cccc(-c3cccc(-c4cnc(CNC[C@@H]5CCC(=O)N5)c(OC)n4)c3Cl)c2C)c(C(F)(F)F)cc1CN1CC[C@@H](C(=O)O)C1 [Z-58]	78 nM	
COc1cc(/C=C/c2cccc(-c3cccc(NC(=O)c4cn5c(n4)CN(C)CC5)c3C)c2C)c(C(F)(F)F)cc1CN1CCC(C(=O)O)C1 (stereo not drawn) [Z-129, (E)-1-(4-(2-(2,2′-dimethyl-3′-(7-methyl-5,6,7,8-tetrahydroimidazo[1,2-a]pyrazine-2-carboxamido)-[1,1′-biphenyl]-3-yl)vinyl)-2-methoxy-5-(trifluoromethyl)benzyl)pyrrolidine-3-carboxylic Acid]		1 nM
COc1cc(/C=C/c2cccc(-c3cccc(NC(=O)c4cc(OC)c(CN5CC[C@@H](O)C5)cn4)c3C)c2C)c(C(F)(F)F)cc1CN1CC(C(=O)O)C1 [Z-130]		1 nM
COc1cc(/C=C/c2cccc(-c3cccc(NC(=O)c4cc(OC)c(CN5CC[C@@H](C(=O)O)C5)cn4)c3C)c2C)c(C(F)(F)F)cc1CN1CC[C@@H](O)C1 [Z-136]		5 nM
COc1cc(/C=C/c2cccc(-c3cccc(NC(=O)c4cc(OC)c(CN5CC[C@@H](O)C5)cn4)c3C)c2C)c(C(F)(F)F)cc1CN1CCC(C(=O)NS(C)(=O)=O)C1 (stereo partly drawn) [Z-139]	7 nM	

Reference: patent US20210386721A1, “SUBSTITUTED PHENYLPROPENYL PYRIDINE DERIVATIVES, THEIR PREPARATION AND PHARMACEUTICAL APPLICATIONS” (SHANGHAI HAIYAN PHARMACEUTICAL TECHNOLOGY CO., LTD., priority 2019, published 2021)
